Series [1] has as its target Tyrosine-protein kinase JAK1 (Homo sapiens, UniProt P23458). It counts as cell-based.
A short description of series [2]: physchem. The following applies: buffer, pH 7.4.
The target of series [3] is Non-receptor tyrosine-protein kinase TYK2 (Homo sapiens, UniProt P29597). In kind it is cell-based.
The nature of a further series: in vitro. The following applies: PAMPA, pH 7.4. Background: In PAMPA a lipid-coated filter parts donor from acceptor wells.
The target of a further series is Aurora kinase B (Homo sapiens, UniProt Q96GD4).
Series [4] is described as follows: physchem. The following applies: buffer, pH 6.5.
Description: Solubility of the compound in stimulated lung fluid at pH 6.5 measured after 4 hrs by HPLC-UV analysis

SMILES strings stand for the structures. Values after ≈ are worked out from the molar mass of the structure shown.

Sequence of Tyrosine-protein kinase JAK1 (P23458 whole entry): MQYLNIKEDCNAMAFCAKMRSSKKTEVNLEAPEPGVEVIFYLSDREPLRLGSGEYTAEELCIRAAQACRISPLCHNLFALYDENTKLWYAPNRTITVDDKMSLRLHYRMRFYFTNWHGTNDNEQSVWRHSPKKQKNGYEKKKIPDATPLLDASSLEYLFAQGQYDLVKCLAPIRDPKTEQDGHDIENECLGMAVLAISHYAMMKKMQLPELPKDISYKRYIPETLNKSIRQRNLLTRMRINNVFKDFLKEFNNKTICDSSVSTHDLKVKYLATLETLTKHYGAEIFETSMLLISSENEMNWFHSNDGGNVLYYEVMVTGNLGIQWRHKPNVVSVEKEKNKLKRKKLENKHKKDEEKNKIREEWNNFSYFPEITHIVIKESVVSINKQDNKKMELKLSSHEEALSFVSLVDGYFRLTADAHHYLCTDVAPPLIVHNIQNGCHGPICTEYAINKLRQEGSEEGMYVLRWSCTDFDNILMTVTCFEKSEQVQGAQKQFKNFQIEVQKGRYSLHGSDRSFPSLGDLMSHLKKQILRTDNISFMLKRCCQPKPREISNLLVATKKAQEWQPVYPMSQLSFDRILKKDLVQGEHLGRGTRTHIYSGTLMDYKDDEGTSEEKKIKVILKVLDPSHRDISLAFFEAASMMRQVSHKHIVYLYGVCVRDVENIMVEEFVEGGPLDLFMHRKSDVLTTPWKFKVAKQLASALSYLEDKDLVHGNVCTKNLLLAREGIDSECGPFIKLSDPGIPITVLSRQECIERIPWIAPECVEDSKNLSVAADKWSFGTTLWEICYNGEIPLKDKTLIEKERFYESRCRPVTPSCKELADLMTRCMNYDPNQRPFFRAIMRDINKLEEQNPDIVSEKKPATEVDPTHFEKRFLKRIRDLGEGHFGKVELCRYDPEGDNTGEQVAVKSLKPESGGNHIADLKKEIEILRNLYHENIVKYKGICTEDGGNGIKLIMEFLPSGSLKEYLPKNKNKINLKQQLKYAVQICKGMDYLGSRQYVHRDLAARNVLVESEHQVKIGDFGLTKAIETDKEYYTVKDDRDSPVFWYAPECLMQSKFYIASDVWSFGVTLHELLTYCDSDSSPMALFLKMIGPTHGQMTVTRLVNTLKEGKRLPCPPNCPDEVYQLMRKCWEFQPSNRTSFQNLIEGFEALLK
Sequence of Non-receptor tyrosine-protein kinase TYK2 (P29597 whole entry): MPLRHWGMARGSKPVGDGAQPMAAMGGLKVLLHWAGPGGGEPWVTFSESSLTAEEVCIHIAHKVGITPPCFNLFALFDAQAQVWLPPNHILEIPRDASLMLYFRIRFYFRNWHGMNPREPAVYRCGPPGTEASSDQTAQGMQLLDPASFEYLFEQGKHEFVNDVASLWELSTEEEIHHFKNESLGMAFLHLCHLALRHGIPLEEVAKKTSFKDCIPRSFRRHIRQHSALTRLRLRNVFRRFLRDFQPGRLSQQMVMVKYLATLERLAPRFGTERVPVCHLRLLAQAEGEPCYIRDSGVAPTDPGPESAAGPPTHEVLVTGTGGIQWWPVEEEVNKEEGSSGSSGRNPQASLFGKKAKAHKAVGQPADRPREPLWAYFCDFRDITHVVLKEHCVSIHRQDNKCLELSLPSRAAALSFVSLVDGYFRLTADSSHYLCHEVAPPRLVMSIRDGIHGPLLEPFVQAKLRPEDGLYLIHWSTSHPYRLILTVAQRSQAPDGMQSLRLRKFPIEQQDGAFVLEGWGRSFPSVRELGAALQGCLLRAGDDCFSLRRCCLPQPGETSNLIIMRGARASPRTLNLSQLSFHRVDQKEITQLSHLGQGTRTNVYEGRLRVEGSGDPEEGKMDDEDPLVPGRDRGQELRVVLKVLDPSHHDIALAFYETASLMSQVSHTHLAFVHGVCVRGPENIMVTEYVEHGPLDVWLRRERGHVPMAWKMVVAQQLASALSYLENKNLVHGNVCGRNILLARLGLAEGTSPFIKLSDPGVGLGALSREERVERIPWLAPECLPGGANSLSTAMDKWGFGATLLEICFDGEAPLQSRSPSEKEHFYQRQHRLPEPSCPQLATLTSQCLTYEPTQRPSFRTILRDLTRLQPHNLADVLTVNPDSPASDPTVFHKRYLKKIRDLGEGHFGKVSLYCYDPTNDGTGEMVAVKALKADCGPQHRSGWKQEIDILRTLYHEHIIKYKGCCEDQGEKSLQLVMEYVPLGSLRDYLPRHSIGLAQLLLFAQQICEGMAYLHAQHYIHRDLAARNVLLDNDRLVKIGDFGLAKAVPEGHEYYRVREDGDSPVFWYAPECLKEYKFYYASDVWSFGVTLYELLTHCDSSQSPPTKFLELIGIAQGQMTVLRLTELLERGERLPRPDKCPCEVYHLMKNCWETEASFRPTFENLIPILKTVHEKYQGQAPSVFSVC
Sequence of Aurora kinase B (Q96GD4 whole entry): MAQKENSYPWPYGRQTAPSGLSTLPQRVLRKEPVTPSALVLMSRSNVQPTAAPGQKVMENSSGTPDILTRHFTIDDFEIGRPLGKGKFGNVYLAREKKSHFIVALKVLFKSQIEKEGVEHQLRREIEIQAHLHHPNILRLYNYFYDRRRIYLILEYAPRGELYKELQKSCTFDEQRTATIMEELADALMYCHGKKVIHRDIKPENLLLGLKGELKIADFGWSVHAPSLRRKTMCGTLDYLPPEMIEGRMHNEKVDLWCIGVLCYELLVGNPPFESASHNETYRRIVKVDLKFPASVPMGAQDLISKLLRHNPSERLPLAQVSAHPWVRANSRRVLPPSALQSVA
Description for in vitro: Permeability of the compound at pH 7.4 incubated for 3 hrs by HPLC based artificial membrane permeability assay

As usually defined, the IC50 is the concentration that inhibits the measured activity by half. Usually solubility (kinetic) stands for the concentration staying in solution when a stock, usually in DMSO, is diluted into the medium. In the case of `Cn1cc(Nc2ncc3cccc(OC4CCNCC4)c3n2)cn1`, the IC50 in series [1] is 79.4 nM. In “physchem [2]”, the kinetic solubility at 1 h is 523 µM (≈ 170 µg/mL).

On to `COc1cccc2cnc(Nc3cnn(C)c3)nc12`, for which the concentration for half-maximal inhibition (IC50) in series [1] and in series [3] was 631 nM in each case. Moreover, the kinetic solubility at 1 h in the series “physchem [2]” worked out at 539 µM (≈ 138 µg/mL).

On to `CC(=O)N1CCC(Oc2cccc3cnc(Nc4cnn(C)c4)nc23)CC1`, for which the IC50 in series [1] was 251 nM; in series [3], 316 nM. The compound also gave a kinetic solubility at 1 h in “physchem [2]” of 557 µM (≈ 204 µg/mL).

Broadly, the Papp is a coefficient for how fast a substance crosses the barrier. Higher therefore signals fast passage. For `CCc1cc(O)c(F)cc1-c1cc(NCCNC)c2nc(N)ncc2c1`, the Papp at 3 h in “in vitro” stood at 1.2 ×10⁻⁶ cm/s. Moreover, the midpoint of inhibition at Aurora kinase B, the IC50, lay at 12600 nM.

Usually solubility stands for how much of the substance goes into solution per volume. The compound `CCc1cc(O)c(F)cc1-c1cc(NCCO)c2nc(N)ncc2c1` displayed a Papp at 3 h in “in vitro” of 12 ×10⁻⁶ cm/s. The solubility at 4 h in “physchem [4]” came out at 44 µg/mL (≈ 129 µM).

On to `CC(=O)N1CCC(Nc2cccc3cnc(Nc4cnn(C)c4)nc23)CC1`, for which the IC50 in series [1] is 126 nM. The same compound yielded a solubility (kinetic) at 1 h in the series “physchem [2]” of 404 µM (≈ 148 µg/mL).

In series [1], `COc1cc(-c2ccc(O)cc2)cc2cnc(Nc3cnn(C)c3)nc12` gave an IC50 of 0.501 nM. This compound also registered a solubility (kinetic) at 1 h in the series “physchem [2]” of 11 µM (≈ 3.82 µg/mL).
